Like-named read-outs stand apart in the source and are kept apart here.
Experiments:
[1] = for Initial purity: before storage; for form in which the salt was obtained: salt forms prepared by the same process
[2] = test system: gout patients; assay: Adverse drug reaction per dose in gout patients; assay type: in vivo, human; details: oral, 14 days
Protocol: The compound was orally administered at doses 3 mg (N=14), 5 mg (N=15), 7 mg (N=17) and 10 mg (N=17) based on the active ingredient (3,5-dibromo-4-hydroxyphenyl)(2,3-dihydro-4H-pyrido[4,3-b][1,4]oxazin-4-yl)-methanone (Formula I), and placebo (N=13), for 14 days, and the adverse drug reaction was investigated.

[3] = test system: gout patients; assay: Urinary creatinine levels in gout patients; assay type: in vivo, human; details: 10 mg, oral, 14 days
Protocol: Furthermore, urinary creatinine levels were also measured in the same patients. The number of cases in which creatinine is increased by more than 0.3 mg/dL or more than 1.5 times compared to baseline is shown in Table 4 below.

[4] = Physical stability to processing factors (grinding, granulating, tableting); assay type: physicochemical
Excerpt: In addition, the physical stability to processing factors in the preparation of the above 1.5 hydrate and the non-solvate were compared, and the results are shown in Table 2 below.

[5] = test system: gout patients; assay: Serum uric acid level in gout patients per dose; assay type: in vivo, human; details: 14 days; for patients whose serum uric acid level fell below <5.0 mg/dL / percentage of patients whose serum uric acid level fell below <5.0 mg/dL: measured 15th day
Protocol: The compound was orally administered at doses of 0.25 mg (N=12), 0.5 mg (N=12), 1 mg (N=12) and 2 mg (N=12) based on the active ingredient (3,5-dibromo-4-hydroxyphenyl)(2,3-dihydro-4H-pyrido[4,3-b][1,4]oxazin-4-yl)-methanone (Formula I), and placebo (N=12), for 14 days. The efficacy and safety of the compound on the serum uric acid (UA) level was evaluated in comparison with the placebo.
Serum uric acid levels were measured on the 15th day after administration, and the percentages of patients whose serum uric acid level fell below <6.0 mg/dL and below <5.0 mg/dL were determined and shown in FIG. 13. […] From the above results, it could be understood that a dose less than 2 mg is not effective in the treatment of diseases such as hyperuricemia and gout.
In addition, for a total of 68 gout patients, (3,5-dibromo-4-hydroxyphenyl)(2,3-dihydro-4H-pyrido[4,3-b][1,4]oxazin-4-yl)-methanone hydrochloride 1.5 hydrate according to the present invention was administered. The compound was orally administered at doses of 3 mg (N=13), 5 mg (N=14), 7 mg (N=15) and 10 mg (N=15) based on the active ingredient (3,5-dibromo-4-hydroxyphenyl)(2,3-dihydro-4H-pyrido[4,3-b][1,4]oxazin-4-yl)-methanone (Formula I), and placebo (N=11), for 14 days. The efficacy and safety of the compound on the serum uric acid level was evaluated in comparison with the placebo.
Serum uric acid levels were measured on the 15th day after administration, and the percentages of patients whose serum uric acid level fell below <6.0 mg/dL and below <5.0 mg/dL were determined and shown in FIG. 14.

[6] = Solubility test in FeSSIF; assay type: physicochemical; details: At 240 minutes; 50 mL FeSSIF (pH 5.0), 37° C., paddle 50 rpm; 10 mg compound + 100 mg lactose
Protocol: The solubility test was carried out using 50 mL of FeSSIF (pH 5.0) as a medium and setting the paddle speed at 50 rpm under the operation condition at 37° C.

[7] = 30% v/w solvent, granulated about 2 min, dried at 50° C.

## c1cc2c(cn1)NCCO2 [Free base]
[1]; 30° C., 65% RH
  purity, 1 week: 97.72%
  purity, 2 weeks: 97.96%
  purity, 4 weeks: 98.18%
[1]; 40° C., 75% RH
  purity, 1 week: 97.74%
  purity, 2 weeks: 97.91%
  purity, 4 weeks: 98.10%
[1]
  Initial purity: 99.36%
[1]; both conditions, up to 4 weeks
  Note (purity over the stability test): >97.5%

## O=S(=O)(O)O.c1cc2c(cn1)NCCO2 [Sulfate]
[1]; 30° C., 65% RH
  purity, 1 week: 99.05%
  purity, 2 weeks: 99.85%
  purity, 4 weeks: melted
[1]; 40° C., 75% RH
  purity, 1 week: melted
  purity, 2 weeks: melted
  purity, 4 weeks: melted
[1]
  Initial purity: 98.88%
  form in which the salt was obtained: solid form
[1]; both conditions, up to 4 weeks
  Note (stability verdict): unstable
[1]; stability test for 4 weeks
  stability test outcome in words: the solid melted again to a liquid

## Cl.Cl.O.O.O.O=C(c1cc(Br)c(O)c(Br)c1)N1CCOc2ccncc21.O=C(c1cc(Br)c(O)c(Br)c1)N1CCOc2ccncc21 [hydrochloride 1.5 hydrate, (3,5-dibromo-4-hydroxyphenyl)(2,3-dihydro-4H-pyrido[4,3-b][1,4]oxazin-4-yl)-methanone hydrochloride 1.5 hydrate]
[2]; 3 mg (N = 14)
  arthralgia (adverse drug reaction): 0
  joint swelling (adverse drug reaction): 0
[2]; 3 mg, 5 mg, 7 mg and 10 mg
  incidence of adverse events such as arthralgia and joint swelling: no or very low incidence
[2]; 5 mg (N = 15)
  arthralgia (adverse drug reaction): 0
  joint swelling (adverse drug reaction): 0
[2]; 7 mg (N = 17)
  arthralgia (adverse drug reaction): 0
  joint swelling (adverse drug reaction): 0
[2]; 10 mg (N = 17)
  arthralgia (adverse drug reaction), cases: [3 cases]
  arthralgia (adverse drug reaction), persons: 2 persons
  arthralgia (adverse drug reaction), share of persons: 11.76%
  joint swelling (adverse drug reaction), cases: [1 case]
  joint swelling (adverse drug reaction), persons: 1 person
  joint swelling (adverse drug reaction), share of persons: 5.88%
[3]
  Number of cases in which creatinine is increased by more than 0.3 mg/dL or more than 1.5 times compared to baseline: 3
[4]; 2 tons of pressure for 5 sec, 7 mm punches, powder X-ray diffractometer
  Crystallinity change after Tableting: Δ5% (94→89%)
[4]; [7]
  Solid form after Granulating with 1:1 of water and ethanol: Unchanged
  Solid form after Granulating with water: Unchanged
[4]; granulating
  solid forms in granulating: no change
[4]; ground about 2 min using a mortar, powder X-ray diffractometer
  Crystallinity change after Grinding: Δ3% (94→91%)
[5]; 0.25 mg oral
  patients whose serum uric acid level fell below <5.0 mg/dL: no patient
[5]; 0.5 mg oral
  patients whose serum uric acid level fell below <5.0 mg/dL: no patient
[5]; 1 mg oral
  patients whose serum uric acid level fell below <5.0 mg/dL: no patient
[5]; 2 mg oral
  percentage of patients whose serum uric acid level fell below <5.0 mg/dL: about 8%
[5]; 3 mg oral
  percentage of patients whose serum uric acid level fell below <5.0 mg/dL: approximately 23%
[5]; 3 mg, 5 mg, 7 mg and 10 mg, oral
  Patients whose serum uric acid level fell below <6.0 mg/dL: appeared in all experimental doses
[5]; 5 mg oral
  percentage of patients whose serum uric acid level fell below <5.0 mg/dL: ~64%
[5]; 7 mg oral
  percentage of patients whose serum uric acid level fell below <5.0 mg/dL: ~80%
[5]; 10 mg oral
  percentage of patients whose serum uric acid level fell below <5.0 mg/dL: ~73%
[6]
  solubility: about 125 μg/mL

## Cl.c1cc2c(cn1)NCCO2
[1]
  form in which the salt was obtained: unstable in a semi-solid form

## O=C(c1cc(Br)c(O)c(Br)c1)N1CCOc2ccncc21 [compound of Formula I, (3,5-dibromo-4-hydroxyphenyl)(2,3-dihydro-4H-pyrido[4,3-b][1,4]oxazin-4-yl)-methanone]
[5]; 0.25 mg oral
  patients whose serum uric acid level fell below <5.0 mg/dL: no patient
[5]; 0.5 mg oral
  patients whose serum uric acid level fell below <5.0 mg/dL: no patient
[5]; 1 mg oral
  patients whose serum uric acid level fell below <5.0 mg/dL: no patient
[5]; 2 mg oral
  percentage of patients whose serum uric acid level fell below <5.0 mg/dL: about 8%
[5]; 3 mg oral
  percentage of patients whose serum uric acid level fell below <5.0 mg/dL: approximately 23%
[5]; 5 mg oral
  percentage of patients whose serum uric acid level fell below <5.0 mg/dL: ~64%
[5]; 7 mg oral
  percentage of patients whose serum uric acid level fell below <5.0 mg/dL: ~80%
[5]; 10 mg oral
  percentage of patients whose serum uric acid level fell below <5.0 mg/dL: ~73%

## O=P(O)(O)O.c1cc2c(cn1)NCCO2
[1]
  form in which the salt was obtained: gel form
